The source made the active and inactive calls. The calls are words filed in the database; no cut-off is given here.
Columns and labels:
Mus musculus [1] = experiment: (§1) Antiinflammatory activity in DBA/1 mouse model of collagen-induced arthritis assessed as CD4 and CD8- double positive cell expression in spleen lymphocytes at 10 mg/kg/day, po administered starting from day 30 and measured on day 63 by APC-conjugated anti-mouse CD4 and FITC-conjugated anti-mouse CD8 staining based flow cytometry relative to control; assay type: functional; conditions: time 33 day
RAW264.7 [2] = experiment: Inhibition of LPS-induced nitric oxide production in mouse RAW264.7 cells at 10 uM measured after 24 hrs by Griess reagent based assay relative to control; assay type: functional
RAW264.7 [3] = experiment: Inhibition of LPS-induced nitric oxide production in mouse RAW264.7 cells measured after 24 hrs by Griess reagent based assay; assay type: functional, cell-based; conditions: RAW264.7, 24 h
RAW264.7 [4] = experiment: Cytotoxicity against mouse RAW264.7 cells assessed as reduction in cell viability measured after 24 hrs by MTT assay; assay type: cell-based; conditions: RAW264.7, 24 h
RAW264.7 [5] = experiment: Inhibition of LPS-induced iNOS expression in mouse RAW264.7 cells measured after 24 hrs by Western blot analysis; assay type: functional, cell-based
Mus musculus [6] = experiment: Antiinflammatory activity in DBA/1 mouse model of collagen-induced arthritis assessed as reduction in arthritis score at 10 mg/kg/day, po administered starting from day 30; assay type: functional, organism-based
Mus musculus [7] = experiment: Antiinflammatory activity in DBA/1 mouse model of collagen-induced arthritis assessed as reduction in paw redness at 10 mg/kg/day, po administered starting from day 30; assay type: functional, organism-based
Mus musculus [8] = experiment: Antiinflammatory activity in DBA/1 mouse model of collagen-induced arthritis assessed as appearance of intact joint structure at 10 mg/kg/day, po administered starting from day 30 and measured on day 63 by H and E/Safranin O staining based microscopic analysis; assay type: functional, organism-based; conditions: time 33.0 day
Mus musculus [9] = experiment: Antiinflammatory activity in DBA/1 mouse model of collagen-induced arthritis assessed as reduction in cartilage destruction at 10 mg/kg/day, po administered starting from day 30 and measured on day 63 by H and E/Safranin O staining based microscopic analysis; assay type: functional, organism-based; conditions: time 33.0 day
Mus musculus [10] = experiment: Antiinflammatory activity in DBA/1 mouse model of collagen-induced arthritis assessed as reduction in TNFalpha mRNA expression in joint tissue at 10 mg/kg/day, po administered starting from day 30 and measured on day 63 by RT-PCR analysis; assay type: functional, organism-based; conditions: time 33.0 day
Mus musculus [11] = experiment: Antiinflammatory activity in DBA/1 mouse model of collagen-induced arthritis assessed as reduction in IL-1beta mRNA expression in joint tissue at 10 mg/kg/day, po administered starting from day 30 and measured on day 63 by RT-PCR analysis; assay type: functional, organism-based; conditions: time 33.0 day
Mus musculus [12] = experiment: Antiinflammatory activity in DBA/1 mouse model of collagen-induced arthritis assessed as reduction in IL-6 mRNA expression in joint tissue at 10 mg/kg/day, po administered starting from day 30 and measured on day 63 by RT-PCR analysis; assay type: functional, organism-based; conditions: time 33.0 day
Mus musculus [13] = experiment: as §1, with “CD8-positive” for “CD4 and CD8- double positive”; assay type: functional; conditions: time 33 day
Mus musculus [14] = experiment: as §1, with “CD4-positive” for “CD4 and CD8- double positive”; assay type: functional; conditions: time 33 day
Mus musculus [15] = experiment: as §1, with “CD8-positive” for “CD4 and CD8- double positive”, “lymph node derived” for “spleen”; assay type: functional; conditions: time 33 day
Mus musculus [16] = experiment: as §1, with “CD8-double” for “CD8- double”, “lymph node derived” for “spleen”; assay type: functional; conditions: time 33 day
Mus musculus [17] = experiment: as §1, with “CD4-positive” for “CD4 and CD8- double positive”, “lymph node derived” for “spleen”; assay type: functional; conditions: time 33 day
Rattus norvegicus [18] = experiment: Antiinflammatory activity in Lewis rat model of adjuvant-induced arthritis assessed as reduction in disease symptom at 10 mg/kg/day, po administered starting from day 14; assay type: functional, organism-based
Rattus norvegicus [19] = experiment: Antiinflammatory activity in Lewis rat model of adjuvant-induced arthritis assessed as reduction in arthritis score at 10 mg/kg/day, po administered starting from day 14; assay type: functional, organism-based
Rattus norvegicus [20] = experiment: Antiinflammatory activity in Lewis rat model of adjuvant-induced arthritis assessed as improvement in disease pathology at 10 mg/kg/day, po administered starting from day 14 and measured on day 28 by H and E/Safranin O staining based microscopic analysis; assay type: functional, organism-based; conditions: time 14.0 day
RAW264.7 [21] = experiment: Inhibition of LPS-induced nitric oxide production in mouse RAW264.7 cells; assay type: functional, cell-based

## COc1cc(O)c(C(=O)/C=C/c2ccc(OCCCN3CCOCC3)c(OC)c2)c(OC)c1
Mus musculus [1]
  Activity: 0.527%
RAW264.7 [2]
  inhibition at 10 µM: 84%
RAW264.7 [3]
  IC50: 6.4 µM
RAW264.7 [4]
  IC50: > 80 µM
RAW264.7 [5]
  inhibition: Dose-dependent effect
Mus musculus [6]
  Activity: Active
Mus musculus [7]
  Activity: Active
Mus musculus [8]
  Activity: Active
Mus musculus [9]
  Activity: Active
Mus musculus [10]
  Activity: Active
Mus musculus [11]
  Activity: Active
Mus musculus [12]
  Activity: Active
Mus musculus [13]
  Activity: 28.7%
Mus musculus [14]
  Activity: 39.1%
Mus musculus [15]
  Activity: 27.4%
Mus musculus [16]
  Activity: 2.13%
Mus musculus [17]
  Activity: 29.3%
Rattus norvegicus [18]
  Activity: Active
Rattus norvegicus [19]
  Activity: Active
Rattus norvegicus [20]
  Activity: Active

## COc1cc(O)c(C(=O)/C=C/c2ccc(O)cc2)c(OC)c1 [FLAVOKAWAIN C]
RAW264.7 [2]
  inhibition at 10 µM: 66.8%

## COc1ccc(/C=C(\F)C(=O)c2c(O)cc(OC)cc2OC)cc1
RAW264.7 [2]
  inhibition at 10 µM: 50.3%

## COc1cc(O)c(C(=O)/C=C/c2ccccc2)c(OC)c1 [FLAVOKAWAIN B]
RAW264.7 [2]
  inhibition at 10 µM: 80.6%
RAW264.7 [3]
  IC50: 4.2 µM
RAW264.7 [4]
  IC50: 26.5 µM

## COc1cc(O)c(C(=O)/C=C/c2ccc(OCCCN3CCCC3)c(OC)c2)c(OC)c1
RAW264.7 [2]
  inhibition at 10 µM: 83.1%
RAW264.7 [3]
  IC50: 6.5 µM
RAW264.7 [4]
  IC50: > 40 µM

## COc1cc(O)c(C(=O)/C=C/c2ccc(OC)c(OC)c2)c(OC)c1
RAW264.7 [2]
  inhibition at 10 µM: 78.7%

## COc1ccccc1C(=O)/C=C/c1ccc(Cl)c(Cl)c1
RAW264.7 [21]
  IC50: 7.1 µM

## COc1ccc(/C=C(\C)C(=O)c2c(O)cc(OC)cc2OC)cc1
RAW264.7 [2]
  inhibition at 10 µM: 41.6%

## COc1cc(O)c(C(=O)/C(F)=C/c2ccc(O)cc2)c(OC)c1
RAW264.7 [2]
  inhibition at 10 µM: 70%

## COc1cccc(OC)c1C(=O)/C=C/c1ccc(N(C)C)cc1
RAW264.7 [21]
  IC50: 0.6 µM

## COc1cc(O)c(C(=O)/C=C/c2ccc([N+](=O)[O-])cc2)c(OC)c1
RAW264.7 [2]
  inhibition at 10 µM: 35.4%

## COc1cc(O)c(C(=O)/C(F)=C/c2ccc(C)cc2)c(OC)c1
RAW264.7 [2]
  inhibition at 10 µM: 50.8%

## COc1cccc(O)c1C(=O)/C=C/c1ccccc1
RAW264.7 [21]
  IC50: 9.6 µM

## COc1ccc(/C=C/C(=O)c2c(O)cc(OC)cc2OC)c(OC)c1
RAW264.7 [2]
  inhibition at 10 µM: 67.6%

## COc1cccc(O)c1C(=O)/C=C/c1cccc(Br)c1
RAW264.7 [21]
  IC50: 7.8 µM

## COc1ccc(OC)c(C(=O)/C=C/c2ccc(N(C)C)cc2)c1
RAW264.7 [21]
  IC50: 0.7 µM

## CC1(C)C=Cc2cc(C(=O)/C=C/c3ccc(O)cc3)c(O)cc2O1 [4-HYDROXYISOLONCHOCARPIN]
RAW264.7 [21]
  IC50: 2.4 µM

## CC(C)=CCc1c(O)ccc(C(=O)/C=C/c2ccc(O)cc2)c1O [ISOBAVACHALCONE]
RAW264.7 [21]
  IC50: 1.6 µM

## COc1cc(O)c(C(=O)/C=C/c2ccc(OCCCN3CCN(C)CC3)c(OC)c2)c(OC)c1
RAW264.7 [2]
  inhibition at 10 µM: 70.4%

## COc1cc(O)c(C(=O)/C=C/c2ccc(OCCO)cc2)c(OC)c1
RAW264.7 [2]
  inhibition at 10 µM: 73.6%

## COc1cc(O)c(C(=O)/C=C/c2ccc(OC)c(O)c2)c(OC)c1
RAW264.7 [2]
  inhibition at 10 µM: 70.6%

## COc1ccc(OC)c(/C=C/C(=O)c2c(O)cc(OC)cc2OC)c1
RAW264.7 [2]
  inhibition at 10 µM: 73.7%

## COc1cccc(CCC(=O)c2c(O)cc(OC)cc2OC)c1
RAW264.7 [2]
  inhibition at 10 µM: 52.2%

## COc1cccc(C2CC(=O)c3c(OC)cc(OC)cc3O2)c1 (centres undefined)
RAW264.7 [2]
  inhibition at 10 µM: 57.3%

## COc1ccc(/C=C/C(=O)c2ccc(OC)cc2O)cc1
RAW264.7 [2]
  inhibition at 10 µM: 70%

## COc1cccc(/C=C/C(=O)c2c(O)cc(OC)cc2OC)c1
RAW264.7 [2]
  inhibition at 10 µM: 86.9%
RAW264.7 [3]
  IC50: 2.4 µM
RAW264.7 [4]
  IC50: 34 µM

## COc1cc(O)c(C(=O)/C=C/c2ccc(OC)c(Br)c2)c(OC)c1
RAW264.7 [2]
  inhibition at 10 µM: 73.8%

## CC(C)=CCc1cc(C(=O)/C=C/c2ccc(O)c(O)c2)c(O)cc1O [BROUSSOCHALCONE A]
RAW264.7 [21]
  IC50: 11.3 µM

## COc1cccc(/C=C/C(=N\O)c2c(O)cc(OC)cc2OC)c1
RAW264.7 [2]
  inhibition at 10 µM: 46.4%

From ChEMBL document CHEMBL4765281, “Development of a novel nitric oxide (NO) production inhibitor with potential therapeutic effect on chronic inflammation” (Eur J Med Chem, 2020)
